Laboratory results published in ChEMBL document CHEMBL1782049, “The synthesis and evaluation of a novel class of (E)-3-(1-cyclohexyl-1H-pyrazol-3-yl)-2-methylacrylic acid hepatitis C virus polymerase NS5B inhibitors” (Bioorg Med Chem Lett, 2011).

Legend:
[1] = system: Hepatitis C virus; assay: Inhibition of Hepatitis C virus subtype 1b NS5B activity assessed as inhibition of poly(A)n.oligo(dT)12-18-directed incorporation of [3H]-UTP into […] after 45 mins
[2] = system: Hepatitis C virus; assay: Antiviral activity against Hepatitis C virus subtype 1b infected in human Huh7 cells by replicon assay; assay type: functional, organism-based, Hepacivirus hominis; conditions: genotype 1b, Huh-7
[3] = system: Hepatitis C virus; assay: Antiviral activity against Hepatitis C virus subtype 1b harboring NS5B P495A mutant infected in human Huh7 cells by replicon assay; assay type: functional, organism-based, Hepacivirus hominis; conditions: genotype 1b, Huh-7
[4] = Therapeutic index, ratio of CC50 for human HuH cells to EC50 for Hepatitis C virus subtype 1b; assay type: cell-based; conditions: read-out: Ratio CC50/EC50

Compound | IC50 [1] [µM] | EC50 [2] [µM] | EC50 [3] [µM] | selectivity ratio [4]
CNC(=O)c1ccc(-c2ccc(C#N)cc2)c(COc2ccc(-c3cc(/C=C(\C)C(=O)O)nn3C3CCCCC3)cc2)c1 | 0.79 | – | – | –
CNC(=O)c1ccc(-c2ccc(Cl)cc2)c(COc2ccc(-c3nc(/C=C(\C)C(=O)O)cn3C3CCCCC3)cc2)c1 | 1.62 | – | – | –
CNC(=O)c1ccc(-c2ccc(Cl)cc2)c(COc2ccc(-n3nc(/C=C(\C)C(=O)O)cc3C3CCCCC3)cc2)c1 | 4.03 | – | – | –
CNC(=O)c1ccc(-c2ccc(Cl)cc2)c(COc2ccc(-c3cc(/C=C(\C)C(=O)O)nn3C3CCCCC3)cc2)c1 | 0.38 | – | – | –
C/C(=C\c1cc(-c2ccc(OCc3cc(C(=O)N(C)C)ccc3-c3ccc(Cl)cc3)cc2)n(C2CCCCC2)n1)C(=O)O | 0.46 | 1.9 | – | –
C/C(=C\c1cc(-c2ccc(OCc3cc(C(=O)N4CCC(O)CC4)ccc3-c3ccc(Cl)cc3)cc2)n(C2CCCCC2)n1)C(=O)O | 0.44 | – | – | –
C/C(=C\c1nn(C2CCCCC2)c(-c2ccc(OCc3cc(C(=O)N4CCC(O)CC4)ccc3-c3ccc(Cl)cc3)cc2)c1Br)C(=O)O | 0.65 | 0.7 | – | –
C/C(=C\c1cc(-c2ccc(OCc3cc(C(=O)NCCO)ccc3-c3ccc(Cl)cc3)cc2)n(C2CCCCC2)n1)C(=O)O | 1.03 | – | – | –
C/C(=C\c1cc(-c2ccc(OCc3cc(C(=O)N(C)C)ccc3-c3ccc(C#N)cc3)cc2)n(C2CCCCC2)n1)C(=O)O | 0.82 | – | – | –
C/C(=C\c1cc(-c2ccc(OCc3cc(C(=O)N4CCC(O)CC4)ccc3-c3ccc(C#N)cc3)cc2)n(C2CCCCC2)n1)C(=O)O | 0.34 | 0.4 | 4 | > 60
CNC(=O)c1ccc(-c2ccc(C(C)=O)s2)c(COc2ccc(-c3cc(/C=C(\C)C(=O)O)nn3C3CCCCC3)cc2)c1 | 2.29 | – | – | –
CC(=O)c1ccc(-c2ccc(C(=O)N(C)C)cc2COc2ccc(-c3cc(/C=C(\C)C(=O)O)nn3C3CCCCC3)cc2)s1 | 2.7 | – | – | –
CC(=O)c1ccc(-c2ccc(C(=O)N3CCOCC3)cc2COc2ccc(-c3cc(/C=C(\C)C(=O)O)nn3C3CCCCC3)cc2)s1 | 5.2 | – | – | –
CNC(=O)c1ccc(-c2ccc(Cl)cc2)c(COc2ccc(-c3nc4cc(C(=O)O)ccc4n3C3CCCCC3)cc2)c1 | 0.64 | 0.3 | – | –
